Data as given in patent EP0648759A1, “Antihistaminic compounds, process for their preparation and pharmaceutical compositions containing them” (ERREGIERRE S.p.A., priority 1993, dated 1995).

How the values were obtained:
[1] = test system: muscarinic cholinergic receptor; test: Functional activity on guinea pig isolated ileum, acetylcholine-induced contractions; type: cell-based; conditions: TFZ 5 x 10⁻⁷ M, dose corresponding to the IC₅₀ effective against histamine
Method: (§1) The test was essentially meant to characterize the type of activity of the molecules under examination by checking their antagonist activity versus H₁ receptor. To this end, the guinea pig isolated ileum was used for two different tests: a) evaluation of the antagonist activity towards the agonist histamine; b) evaluation of the antagonist activity towards the agonist acetylcholine. Said tests were carried out to check the specificity and selectivity levels of the moleculas under examination.
(§2) Male and female guinea pigs weighing approx. 250 g were used. A portion of terminal ileum was excised and immersed in a bath for isolated organ, in Tyrode solution, at 37°C. The antagonist activity was evaluated by determining the ability of the studied drug to modify the dose-effect curve built with increasing doses of agonist alone. Furthermore, in another series of experiments, increasing doses of the molecules under examination were tested in comparison with a submaximal dose of agonist.
With a view to estimating the antagonist specificity level of the molecule TFZ under examination and taking into account the anticholinergic activity often associated with antihistaminic molecules, the capability of TFZ of antagonizing the acetylcholine (ACh) contraction effect on guinea pig isolated ileum was tested. […]

H₁ receptor [2] = target: T1, H₁ receptor (Cavia porcellus, UniProt P31389); test: Binding assay under saturation kinetics conditions (Scatchard); set-up: species or system guinea pig; conditions: in the presence of TFZ 2 x 10⁻⁷ M
T1 construct: A portion of terminal ileum was excised and immersed in a bath for isolated organ; from tissue; host or cells: guinea pig isolated terminal ileum
Method: These assays (Scatchard) were carried out under the same incubation conditions and according to the conclusive test method described under paragraph 1a), with the exception that the radioligand concentration was changed according to a range of concentrations comprised between 0.3 and 10 nM, in the presence of a concentration of antagonist TFZ of 2 x 10⁻⁷ M.

H₁ receptor [3] = target: T1, H₁ receptor; test: Functional activity on guinea pig isolated ileum, histamine-induced contractions; type: cell-based
Method: as §1, §2
The dose of histamine used was 6.8x10⁻⁸ M. The percentage of inhibition found after adding the tested drug to the bath for isolated organ versus the response obtained from the agonist alone was calculated. Six detections were carried out for each drug concentration. The results, calculated in terms of IC₅₀, corresponded to the drug concentrations responsible for a 50% reduction in the submaximal concentration of the agonist alone.

T1 sequence (P31389 whole entry): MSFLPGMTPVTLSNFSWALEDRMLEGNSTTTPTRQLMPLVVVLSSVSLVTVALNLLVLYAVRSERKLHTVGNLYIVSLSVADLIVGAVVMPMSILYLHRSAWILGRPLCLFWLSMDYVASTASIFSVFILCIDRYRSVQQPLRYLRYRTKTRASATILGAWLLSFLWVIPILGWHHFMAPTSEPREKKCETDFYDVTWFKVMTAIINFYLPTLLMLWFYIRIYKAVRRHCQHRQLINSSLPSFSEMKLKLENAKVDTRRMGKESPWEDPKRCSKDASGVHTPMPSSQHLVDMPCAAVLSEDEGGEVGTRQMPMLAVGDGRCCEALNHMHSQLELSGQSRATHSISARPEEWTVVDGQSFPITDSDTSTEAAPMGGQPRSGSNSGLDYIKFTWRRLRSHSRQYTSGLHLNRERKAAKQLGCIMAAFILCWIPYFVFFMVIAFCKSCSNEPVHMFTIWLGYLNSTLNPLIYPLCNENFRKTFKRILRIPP

## CC(C)(c1ccc(C(O)CCCN2CCC(C(O)(c3ccccc3)c3ccccc3)CC2)cc1)c1nn[nH]n1 (racemic) [TFZ, p-1-hydroxy-4-(4-hydroxydiphenylmethyl-1-piperidinyl)-butyl-2-(1H-tetrazol-5-yl)-isopropyl benzene]
[1]
  inhibitory activity against acetylcholine (ACh) contraction effect: no inhibitory activity
H₁ receptor [2]
  Bmax (density of the binding sites): no significant change
H₁ receptor [3]; histamine 6.8 x 10⁻⁸ M, comparison in words, numbers only in Fig. 5
  IC₅₀, inhibition of histamine-submaximal contraction: completely superimposable to that of MET I
H₁ receptor [3]; increasing doses added to the bath perfusion liquid, no agonist
  agonist activity (contraction of the ileum smooth muscles): no agonist activity
H₁ receptor [3]; three TFZ concentrations, Fig. 4
  type of antagonist activity towards histamine (Lineweaver-Burk): competitive antagonist activity
